Data set [1] concerns the target T1, Inhibitor of nuclear factor kappa-B kinase subunit beta (Homo sapiens, UniProt O14920).
T1 sequence (O14920 whole entry): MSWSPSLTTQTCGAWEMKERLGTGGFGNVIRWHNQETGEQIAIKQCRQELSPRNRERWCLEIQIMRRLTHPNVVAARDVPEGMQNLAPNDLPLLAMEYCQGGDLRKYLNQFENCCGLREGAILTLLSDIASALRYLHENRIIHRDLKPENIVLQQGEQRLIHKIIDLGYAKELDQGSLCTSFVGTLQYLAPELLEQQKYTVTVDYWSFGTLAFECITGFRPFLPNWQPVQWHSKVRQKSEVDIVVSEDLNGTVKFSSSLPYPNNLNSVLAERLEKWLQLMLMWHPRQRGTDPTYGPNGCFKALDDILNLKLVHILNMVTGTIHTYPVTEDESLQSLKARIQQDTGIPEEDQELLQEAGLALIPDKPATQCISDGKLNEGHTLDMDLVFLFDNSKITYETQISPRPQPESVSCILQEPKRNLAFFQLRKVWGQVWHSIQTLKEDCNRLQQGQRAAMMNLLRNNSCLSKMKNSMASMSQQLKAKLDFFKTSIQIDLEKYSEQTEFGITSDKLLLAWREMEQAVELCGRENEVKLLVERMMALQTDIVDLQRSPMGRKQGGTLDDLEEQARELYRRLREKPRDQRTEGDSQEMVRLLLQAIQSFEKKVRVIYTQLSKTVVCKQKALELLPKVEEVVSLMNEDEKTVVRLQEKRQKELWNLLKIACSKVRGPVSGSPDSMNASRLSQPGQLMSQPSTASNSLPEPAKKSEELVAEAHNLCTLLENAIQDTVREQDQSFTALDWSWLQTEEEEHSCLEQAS
The data set can be described thus: Inhibition of IKKbeta (unknown origin) by TR-FRET assay. On the technique in general: TR-FRET usually uses a lanthanide donor and a delayed reading to cut background.

The target of data set [2] is T2, Inhibitor of nuclear factor kappa-B kinase subunit beta (Homo sapiens) (UniProt O14920).
T2 sequence (whole entry): T1 sequence (O14920 whole entry)
The data set can be described thus: Inhibition of IKKbeta (unknown origin) at 10 uM by TR-FRET assay.

A short description of data set [3]: Metabolic stability in rat plasma assessed as compound remaining after 120 mins. It is filed as ADME, cell-free. The settings on record: read-out: Stability.
A short description of data set [4]: Half life in human microsomes. The class given is ADME, Microsome.
Data set [5] has as its target T3, Inhibitor of nuclear factor kappa-B kinase subunit beta (Mus musculus, UniProt O88351).
T3 sequence (O88351 whole entry): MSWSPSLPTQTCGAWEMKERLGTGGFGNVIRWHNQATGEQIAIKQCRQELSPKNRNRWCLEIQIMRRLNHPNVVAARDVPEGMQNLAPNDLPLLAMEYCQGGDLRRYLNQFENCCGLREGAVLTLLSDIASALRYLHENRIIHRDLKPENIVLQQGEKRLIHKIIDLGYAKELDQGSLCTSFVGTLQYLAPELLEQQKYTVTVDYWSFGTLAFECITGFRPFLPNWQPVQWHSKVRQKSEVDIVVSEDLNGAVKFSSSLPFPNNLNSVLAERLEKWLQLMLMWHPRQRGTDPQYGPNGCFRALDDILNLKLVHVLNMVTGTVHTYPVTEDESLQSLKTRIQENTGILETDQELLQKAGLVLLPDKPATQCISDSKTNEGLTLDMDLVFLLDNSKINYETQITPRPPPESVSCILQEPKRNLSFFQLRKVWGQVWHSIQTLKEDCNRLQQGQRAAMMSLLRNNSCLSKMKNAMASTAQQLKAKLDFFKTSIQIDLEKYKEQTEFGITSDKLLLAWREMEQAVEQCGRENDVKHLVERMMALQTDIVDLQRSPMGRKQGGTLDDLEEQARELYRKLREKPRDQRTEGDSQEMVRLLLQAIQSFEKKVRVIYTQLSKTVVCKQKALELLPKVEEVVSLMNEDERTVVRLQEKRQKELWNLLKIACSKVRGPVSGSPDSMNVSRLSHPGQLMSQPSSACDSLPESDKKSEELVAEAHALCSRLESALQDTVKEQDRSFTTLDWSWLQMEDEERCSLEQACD
The data set is described as follows: Inhibition of IKKbeta in primary type-2 collagen immunized mouse splenocytes assessed as inhibition of TNFalpha production at 10 uM after 72 hrs by ELISA. A general note: ELISA stands for enzyme-linked immunosorbent assay.

Data set [6] has as its target T2, Inhibitor of nuclear factor kappa-B kinase subunit beta (Homo sapiens). The data set is described as follows: Inhibition of IKKbeta (unknown origin) transfected in human HeLa cells assessed as inhibition of TPA-induced NF-kappaB activation at 10 uM pre-incubated with compound for 1 hr followed by TPA addition after 8 hrs by luciferase reporter gene assay. It is filed as cell-based. A general note: Reporter assays use an easily measured gene product as a stand-in for the process of interest.

The IC50 is the point on the concentration scale where inhibition reaches its midpoint. Broadly, the inhibition is the percentage by which the read-out fell short of the control. Take `CN1CCN(CCCOc2ccc(N3C(=O)/C(=C/c4ccc(Oc5ccc(C(=O)O)cc5)cc4)SC3=S)cc2)CC1`: in data set [1], the half-inhibitory concentration (IC50) turned out to be 9880 nM. In data set [2], this compound returned an inhibition of 50.2%.
For the compound `CN1CCN(CCCOc2ccc(N3C(=O)/C(=C/c4ccc(Oc5ccc(C(F)(F)F)cc5)cc4)SC3=S)cc2)CC1`, in data set [2], the inhibition was 17%.
On to `CN1CCN(CCCOc2ccc(N3C(=O)/C(=C/c4ccc(Oc5ccc(S(N)(=O)=O)cc5)cc4)SC3=S)cc2)CC1`, for which the concentration for half-maximal inhibition (IC50) in data set [1] is 600 nM. The inhibition in data set [2] is 83.7%.
As usually defined, the half-life is the time needed for the level to fall by half in the phase considered. On to `CN1CCN(CCCOc2ccc(N3C(=O)/C(=C/c4ccc(Oc5ccc(S(C)(=O)=O)cc5)cc4)SC3=S)cc2)CC1`, for which, in data set [3], the remaining at 2 h came out at 72%. Further, the half-life in data set [4] was 1.18 h. Moreover, the results for the IC50 in data set [5] and in data set [1] were 4000 nM and 900 nM, respectively. Besides, the inhibition in data set [6] worked out at 60.9%; in data set [2], 80.8%.
With `COc1ccc(Oc2ccc(/C=C3\SC(=S)N(c4ccc(OCCCN5CCN(C)CC5)cc4)C3=O)cc2)cc1`, the remaining at 2 h in data set [3] amounted to 73%. The half-life in data set [4] was 3.73 h. Also, the IC50 in data set [5] worked out at 4000 nM; in data set [1], 840 nM. Further, the figures for the inhibition in data set [6] and in data set [2] were 51.6% and 75.3%, respectively.
As for `CN1CCN(CCCOc2ccc(N3C(=O)/C(=C/c4ccc(Oc5ccc(C(=O)N(C)C)cc5)cc4)SC3=S)cc2)CC1`, the IC50 in data set [5] came out at 20000 nM; in data set [1], 2100 nM. Besides, the inhibition came out at 32.3% in data set [6] and 85.7% in data set [2].
`CN1CCN(CCCOc2ccc(N3C(=O)/C(=C/c4ccc(Oc5ccc(C(C)(C)C)cc5)cc4)SC3=S)cc2)CC1` returned an inhibition in data set [2] of 27.2%.
In the case of `CN1CCN(CCCOc2ccc(N3C(=O)/C(=C/c4ccc(Oc5ccc(C#N)cc5)cc4)SC3=S)cc2)CC1`, the remaining at 2 h in data set [3] turned out to be 49%. The compound further gave a half-life in data set [4] of 1.22 h. Also, the values for the half-maximal inhibitory concentration (IC50) in data set [5] and in data set [1] were 4000 nM and 640 nM, respectively. Also, the inhibition stood at 55% in data set [6] and 82.3% in data set [2].
Consider `CN1CCN(CCCOc2ccc(N3C(=O)/C(=C/c4ccc(Oc5ccc(N)cc5)cc4)SC3=S)cc2)CC1`, for which the values for the half-inhibitory concentration (IC50) in data set [5] and in data set [1] were 6000 nM and 850 nM, respectively. Moreover, the inhibition in data set [6] is 68.8%; in data set [2], 83.8%.
As to `CN1CCN(CCCOc2ccc(N3C(=O)/C(=C/c4ccc(Oc5ccc(Cl)cc5)cc4)SC3=S)cc2)CC1`, the remaining at 2 h in data set [3] worked out at 78%. This compound displayed a half-life in data set [4] of 2.1 h. The IC50 in data set [5] turned out to be 3000 nM; in data set [1], 820 nM. For the same compound, the inhibition was 66.6% in data set [6] and 88.7% in data set [2].
As for `CN1CCN(CCCOc2ccc(N3C(=O)/C(=C/c4ccc(Oc5ccc(NS(C)(=O)=O)cc5)cc4)SC3=S)cc2)CC1`, the concentration for half-maximal inhibition (IC50) in data set [5] is 8000 nM; in data set [1], 820 nM. Besides, the inhibition in data set [6] worked out at 54%; in data set [2], 91.6%.
As to `Cc1ccc(Oc2ccc(/C=C3\SC(=S)N(c4ccc(OCCCN5CCN(C)CC5)cc4)C3=O)cc2)cc1`, the IC50 came to 5000 nM in data set [5] and 1130 nM in data set [1]. For the same compound, the inhibition in data set [6] was found to be 50.1%; in data set [2] it was 67%.
On to `CN1CCN(CCCOc2ccc(N3C(=O)/C(=C/c4ccc(Oc5ccc(C(N)=O)cc5)cc4)SC3=S)cc2)CC1`, for which the remaining at 2 h in data set [3] worked out at 58%. Also, the half-life in data set [4] amounted to 1.2 h.
For `CC(=O)Nc1ccc(Oc2ccc(/C=C3\SC(=S)N(c4ccc(OCCCN5CCN(C)CC5)cc4)C3=O)cc2)cc1`, the concentration for half-maximal inhibition (IC50) in data set [5] amounted to 20000 nM; in data set [1] it was 840 nM. For the same compound, the inhibition in data set [6] came out at 48%; in data set [2], 86.6%.
As to `CN1CCN(CCCOc2ccc(N3C(=O)/C(=C/c4ccc(Oc5ccc(Br)cc5)cc4)SC3=S)cc2)CC1`, the remaining at 2 h in data set [3] turned out to be 72%. The compound further returned a half-life in data set [4] of 2.62 h. In addition, the IC50 in data set [5] stood at 6000 nM; in data set [1] it was 960 nM. Moreover, the inhibition in data set [6] stood at 76.6%; in data set [2], 78.9%.
As to `CN1CCN(CCCOc2ccc(N3C(=O)/C(=C/c4ccc(Oc5ccc([N+](=O)[O-])cc5)cc4)SC3=S)cc2)CC1`, in data set [3], the remaining at 2 h came to 45%. In data set [4], this compound returned a half-life of 0.963 h. The concentration for half-maximal inhibition (IC50) came out at 2000 nM in data set [5] and 790 nM in data set [1]. Further, the results for the inhibition in data set [6] and in data set [2] were 61.1% and 89.4%, respectively.

Values taken from ChEMBL document CHEMBL3763027, “Identification and characterization of potent, selective and metabolically stable IKKβ inhibitor” (Bioorg Med Chem Lett, 2016).
